Measurements taken from ChEMBL document CHEMBL1201862, “PubChem BioAssay data set” (2004).
Each block holds one compound with its values, some of them ahead of it. Active and inactive are the calls of the source.

Experiments:
BJ [1] = assay: cells; type: functional, cell-based; conditions: Homo sapiens
BJ [2] = assay: cytotoxicity toward BJ-TERT fibroblasts, dose response, cell-based, RAS-independent, luminescence (AID 1933); type: functional; conditions: Homo sapiens
BJ [3] = assay: cytotoxicity toward BJ-TERT-LT-ST fibroblasts, dose response, cell-based, RAS-independent, luminescence (AID 1935); type: functional; conditions: Homo sapiens;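 note: BJ fibroblasts immortalized with TERT plus LT and ST oncogenes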
[4] = cytotoxicity toward DRD oncogenic fibroblasts, dose response, cell-based, non-viral oncogenic, luminescence (AID 1934); type: functional; conditions: Homo sapiens
[5] = molecular target: T1, Polyadenylate-binding protein 1 (Homo sapiens, UniProt P11940); assay: PABP1 MLLE–PAM2 binding inhibitor potency, dose response, biochemical, fluorescence polarization, FITC-PAM2 peptide (AID 602259); type: functional; conditions: read-out: IC50_Mean
[6] = molecular target: T1, Polyadenylate-binding protein 1; assay: PABP1 MLLE–PAM2 interaction inhibitors, dose response, miRNA deadenylation inhibitor project, biochemical, fluorescence polarization, Cy5-PAM2 peptide, secondary (AID 602260); type: functional; conditions: read-out: IC50_Mean
[7] = molecular target: T2, Rac GTPase-activating protein 1 (Homo sapiens, UniProt Q9H0H5); assay: MgcRacGAP GTPase-activating activity inhibitors, confirmation, biochemical, ADP Hunter fluorescence, primary and confirmatory (AID 624330); type: functional
T2 sequence (Q9H0H5 whole entry): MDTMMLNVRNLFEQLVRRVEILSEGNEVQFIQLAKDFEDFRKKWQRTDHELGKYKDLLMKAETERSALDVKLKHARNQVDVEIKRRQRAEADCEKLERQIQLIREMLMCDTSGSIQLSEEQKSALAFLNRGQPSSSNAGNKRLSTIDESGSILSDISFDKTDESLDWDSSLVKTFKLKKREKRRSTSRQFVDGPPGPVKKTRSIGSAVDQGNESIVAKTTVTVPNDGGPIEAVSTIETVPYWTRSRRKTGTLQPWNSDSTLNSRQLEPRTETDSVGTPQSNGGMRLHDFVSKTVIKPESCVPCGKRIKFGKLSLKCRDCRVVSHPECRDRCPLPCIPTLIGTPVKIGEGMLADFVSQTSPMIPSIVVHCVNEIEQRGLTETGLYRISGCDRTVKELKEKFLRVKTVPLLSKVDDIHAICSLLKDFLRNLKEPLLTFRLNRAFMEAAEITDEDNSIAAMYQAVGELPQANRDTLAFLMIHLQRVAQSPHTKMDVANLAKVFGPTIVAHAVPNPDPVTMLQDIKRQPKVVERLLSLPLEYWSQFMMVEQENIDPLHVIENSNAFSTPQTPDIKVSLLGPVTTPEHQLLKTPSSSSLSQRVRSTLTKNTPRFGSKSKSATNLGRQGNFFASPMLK

[8] = molecular target: T3, Calpain-2 catalytic subunit (Sus scrofa, UniProt P43367); assay: pig calpain II inhibitor potency, dose response, biochemical, fluorogenic peptide substrate (AID 1420); type: functional
T3 sequence (P43367 whole entry): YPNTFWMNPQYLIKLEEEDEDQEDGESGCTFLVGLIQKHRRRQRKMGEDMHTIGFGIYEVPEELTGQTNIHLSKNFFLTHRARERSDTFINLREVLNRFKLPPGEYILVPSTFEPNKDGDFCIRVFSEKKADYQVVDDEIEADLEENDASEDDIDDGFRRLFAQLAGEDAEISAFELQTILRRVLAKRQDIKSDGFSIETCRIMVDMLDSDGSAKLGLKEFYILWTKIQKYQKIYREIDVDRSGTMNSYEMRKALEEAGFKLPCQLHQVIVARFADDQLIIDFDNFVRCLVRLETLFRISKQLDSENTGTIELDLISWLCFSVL

Paired box protein Pax-8 = Paired box protein Pax-8 (Homo sapiens, UniProt Q06710); assay: inhibitors of PAX8-driven TPO luciferase reporter, dose response, RMG-I cells, cherry-pick (AID 687027); type: functional, cell-based;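 note: luciferase reporter driven by Pax8 target thyroperoxidase promoter measured by SteadyGlo luminescence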
[9] = molecular target: T4, Corticotropin-releasing factor receptor 2/Corticotropin-releasing factor-binding protein (Homo sapiens, UniProt P24387+Q13324); assay: Dose Response confirmation of uHTS hits for small molecule antagonists of the CRF-binding protein and CRF-R2 receptor complex.; type: functional; conditions: read-out: IC50_Mean
T4 sequence (Q13324 whole entry): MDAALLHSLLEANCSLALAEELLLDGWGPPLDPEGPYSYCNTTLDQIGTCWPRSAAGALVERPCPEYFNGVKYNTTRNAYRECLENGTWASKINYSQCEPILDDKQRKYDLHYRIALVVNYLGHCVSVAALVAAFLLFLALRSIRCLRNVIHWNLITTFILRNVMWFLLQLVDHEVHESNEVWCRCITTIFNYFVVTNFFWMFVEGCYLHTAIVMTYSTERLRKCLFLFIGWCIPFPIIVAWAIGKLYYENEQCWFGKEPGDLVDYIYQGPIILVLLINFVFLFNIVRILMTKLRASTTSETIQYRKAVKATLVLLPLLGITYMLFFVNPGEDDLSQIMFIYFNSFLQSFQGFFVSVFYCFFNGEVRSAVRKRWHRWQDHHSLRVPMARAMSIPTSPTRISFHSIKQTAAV
T4 sequence (P24387 whole entry): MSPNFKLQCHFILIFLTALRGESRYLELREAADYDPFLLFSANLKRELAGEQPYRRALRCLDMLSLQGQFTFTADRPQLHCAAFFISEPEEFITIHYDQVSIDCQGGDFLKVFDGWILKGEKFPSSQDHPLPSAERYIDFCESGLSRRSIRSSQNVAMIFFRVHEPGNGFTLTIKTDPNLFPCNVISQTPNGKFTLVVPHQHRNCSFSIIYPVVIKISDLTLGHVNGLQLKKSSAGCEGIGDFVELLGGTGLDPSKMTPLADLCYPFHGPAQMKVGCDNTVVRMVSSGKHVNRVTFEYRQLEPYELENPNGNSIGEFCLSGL

[10] = molecular target: T4, Corticotropin-releasing factor receptor 2/Corticotropin-releasing factor-binding protein; assay: activators of CRF receptor 2 with binding protein – uHTS hits, confirmation (AID 602473); type: functional; conditions: read-out: EC50_Mean
[11] = Luminescence Cell-Based Dose Response HTS to Identify Activators of Luciferase Translation or Activity in H4 […] Cells. [Related pubchem assays: 1829 (Project Summary), 1814 (Primary HTS)]; type: functional
Cytochrome P450 2D6 = Cytochrome P450 2D6 (Homo sapiens, UniProt P10635);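 note: CYP2D6 member of a cytochrome P450 panel assay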
cells [12] = type: functional, cell-based
cells [13] = type: functional, cell-based; remark: listed apart in the source

T1 sequence (P11940 whole entry): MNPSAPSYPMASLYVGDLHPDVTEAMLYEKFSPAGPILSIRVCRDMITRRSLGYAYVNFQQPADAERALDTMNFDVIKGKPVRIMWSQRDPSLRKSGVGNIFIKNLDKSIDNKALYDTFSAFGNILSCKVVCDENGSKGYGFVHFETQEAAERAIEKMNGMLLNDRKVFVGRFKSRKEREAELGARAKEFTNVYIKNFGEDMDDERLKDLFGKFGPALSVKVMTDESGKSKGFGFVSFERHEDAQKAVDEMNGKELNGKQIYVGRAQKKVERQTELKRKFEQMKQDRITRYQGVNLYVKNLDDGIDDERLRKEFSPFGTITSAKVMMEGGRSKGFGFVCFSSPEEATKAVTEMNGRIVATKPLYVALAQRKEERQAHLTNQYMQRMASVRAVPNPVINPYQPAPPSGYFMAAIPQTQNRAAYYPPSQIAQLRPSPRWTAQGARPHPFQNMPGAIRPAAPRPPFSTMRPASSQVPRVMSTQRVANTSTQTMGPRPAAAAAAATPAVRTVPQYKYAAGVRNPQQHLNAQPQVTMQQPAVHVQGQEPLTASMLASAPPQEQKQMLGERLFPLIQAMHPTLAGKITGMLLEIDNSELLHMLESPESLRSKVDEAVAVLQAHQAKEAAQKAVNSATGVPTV
Paired box protein Pax-8, sequence (Q06710 whole entry): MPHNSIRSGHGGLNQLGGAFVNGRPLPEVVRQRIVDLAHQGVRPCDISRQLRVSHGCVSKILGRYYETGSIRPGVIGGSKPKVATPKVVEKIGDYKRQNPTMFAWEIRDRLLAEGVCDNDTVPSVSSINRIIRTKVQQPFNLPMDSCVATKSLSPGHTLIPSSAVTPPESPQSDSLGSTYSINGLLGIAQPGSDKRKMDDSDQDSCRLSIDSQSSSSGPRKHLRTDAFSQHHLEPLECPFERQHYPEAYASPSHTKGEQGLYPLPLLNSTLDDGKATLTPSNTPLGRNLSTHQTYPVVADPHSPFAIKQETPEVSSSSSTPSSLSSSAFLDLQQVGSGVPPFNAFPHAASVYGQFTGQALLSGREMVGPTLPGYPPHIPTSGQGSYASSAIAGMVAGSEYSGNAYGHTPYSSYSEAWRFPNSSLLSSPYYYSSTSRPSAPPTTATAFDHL
Cytochrome P450 2D6, sequence (P10635 whole entry): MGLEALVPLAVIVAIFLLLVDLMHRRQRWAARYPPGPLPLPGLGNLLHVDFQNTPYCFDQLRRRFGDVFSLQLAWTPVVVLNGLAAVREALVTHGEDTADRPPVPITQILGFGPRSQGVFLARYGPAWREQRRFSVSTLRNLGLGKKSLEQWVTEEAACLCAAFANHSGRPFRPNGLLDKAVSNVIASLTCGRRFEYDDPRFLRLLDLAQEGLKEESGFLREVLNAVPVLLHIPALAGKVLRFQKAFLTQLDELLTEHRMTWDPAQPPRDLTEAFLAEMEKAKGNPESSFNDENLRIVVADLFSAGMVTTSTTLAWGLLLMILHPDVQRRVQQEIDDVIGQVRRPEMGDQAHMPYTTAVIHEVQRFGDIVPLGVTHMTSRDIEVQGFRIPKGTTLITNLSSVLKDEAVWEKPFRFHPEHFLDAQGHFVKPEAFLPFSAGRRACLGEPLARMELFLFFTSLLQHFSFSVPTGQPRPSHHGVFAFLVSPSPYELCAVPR

Compound: Cc1ccc(CCC(=O)Nc2ncc(Cc3cccc(Cl)c3Cl)s2)o1
- EC50 (BJ [1]): 0.668 µM (active)
- EC50 (BJ [2]): 0.311 µM (active)
- EC50 (BJ [3]): 0.216 µM (inconclusive)
- EC50 [4]: 0.381 µM (active)

- IC50 [5]: > 66 µM (inactive)
- IC50 [6]: > 66 µM (inactive)
Compound: O=C(N/C(=C\c1ccco1)C(=O)N1CCCC1CO)c1ccccc1 (centres undefined)

- IC50 [7]: 50.2 µM (active)
Compound: COc1cc(/C=N/N2C(=O)c3ccccc3C2=O)ccc1O

- IC50 [8]: 10.8 µM (not active)
Compound: CCCCOC(=O)c1ccc(NC(=O)c2c(Cl)ccc(Cl)c2OC)cc1

- AC50 (Paired box protein Pax-8): 0.931 µM (active)
Compound: Cc1noc(/C=C/c2ccco2)c1S(=O)(=O)N1CCC(C(=O)NC(C)c2ccccc2)CC1 (centres undefined)

- IC50 [8]: 11.3 µM (not active)
Compound: Cc1noc(C)c1COC(=O)C(c1ccccc1)c1ccccc1

Compound: CN(NC(=O)c1ccccc1F)c1nc(C(F)(F)F)nc2ccccc12
- EC50 (BJ [1]): 0.813 µM (active)
- EC50 (BJ [2]): 0.667 µM (inconclusive)
- EC50 (BJ [3]): 0.428 µM (inconclusive)
- EC50 [4]: 0.628 µM (active)

- IC50 [7]: 152 µM (active)
Compound: CSCc1ccc(C(=O)N2CCCC(Nc3ccc4c(c3)OCCO4)C2)o1 (centres undefined)

- IC50 [5]: > 66 µM (inactive)
- IC50 [6]: > 66 µM (inactive)
Compound: O=C(CSc1ccc(-c2cccnc2)nn1)c1ccc([N+](=O)[O-])cc1

- IC50 [8]: < 0.4 µM (not active)
Compound: COc1ccc(N2CCN(C(=O)Nc3ccc(S(=O)(=O)N(C)C)cc3)CC2)cc1

- IC50 [9]: > 47.1 µM (inactive)
- EC50 [10]: > 53 µM (inactive)
Compound: CC(/C=N/Nc1nc(C)cc(C)n1)=C\c1ccc(C(C)C)cc1

- IC50 [7]: 178 µM (active)
Compound: CC(=O)CC(=O)Nc1ccc(Nc2ccccc2)cc1

Compound: Cc1ccc(-n2c(C)cc(C(=O)COC(=O)c3c(C)noc3C)c2C)cc1
- EC50 [11]: 0.413 µM (active)

- IC50 [9]: > 47.1 µM (inactive)
- EC50 [10]: > 53 µM (inactive)
Compound: O=C(CN1c2cccc3cccc(c23)S1(=O)=O)NC1CCCCC1

- IC50 [5]: > 66 µM (inactive)
- IC50 [6]: > 66 µM (inactive)
Compound: CC(=O)c1ccc(NC(=O)C2CCCNC2=O)cc1 (centres undefined)

- IC50 [8]: 17.4 µM (not active)
Compound: O=C(CN1C(=O)NC(Cc2ccccc2)C1=O)Nc1ccccc1 (centres undefined)

- IC50 [9]: > 47.1 µM (inactive)
- EC50 [10]: > 53 µM (inactive)
Compound: Cc1cccnc1NC(=O)C(C)Oc1ccccc1 (centres undefined)

- IC50 [9]: > 47.1 µM (inactive)
- EC50 [10]: > 53 µM (inactive)
Compound: Cn1c(SCC(=O)N2CCCc3ccccc32)nc2cccnc21

Compound: CCCCC1=CC2=C(c3ccco3)C(=O)C(C)(OC(=O)c3ccc(OC)cc3)C(=O)C2=CN1c1ccc(OC)cc1 (centres undefined)
- EC50 (BJ [1]): > 150 µM (not active)
- EC50 (BJ [2]): 47.1 µM (active)
- EC50 (BJ [3]): > 150 µM (inconclusive)
- EC50 [4]: > 150 µM (not active)

- IC50 [5]: 56.6 µM (inactive)
- IC50 [6]: > 66 µM (inactive)
Compound: COc1cccc(/C=C2\SC(=O)N(CC(=O)NC3C=CS(=O)(=O)C3)C2=O)c1 (centres undefined)

- IC50 [8]: 1.63 µM (not active)
Compound: COc1cc(CNc2nc(C)c([N+](=O)[O-])c(C)c2C#N)cc(OC)c1

Compound: CC(=O)/C(C#N)=C1\NC(=O)C(Cc2cc(Cl)ccc2Cl)S1 (centres undefined)
- EC50 (BJ [1]): 61.2 µM (active)
- EC50 (BJ [2]): > 150 µM (not active)
- EC50 (BJ [3]): > 150 µM (not active)
- EC50 [4]: 76.8 µM (active)

- IC50 [7]: 162 µM (active)
- AC50 (Cytochrome P450 2D6): 39.8 µM (inconclusive)
Compound: COc1cccc(OC)c1OCCCN1CCOCC1

- IC50 [8]: 4.47 µM (not active)
Compound: Cc1noc(C)c1COc1ccc(C(=O)OCc2nnc(-c3ccc(Cl)cc3)o2)cc1

- IC50 [9]: > 47.1 µM (inactive)
- EC50 [10]: > 53 µM (inactive)
Compound: CCc1ccc(Nc2nnc(SC(C)C(=O)NC3CC3)s2)cc1 (centres undefined)

- IC50 [7]: 161 µM (active)
Compound: COc1ccc(NC2CCCN(C(=O)c3ccc(C)nc3)C2)cc1 (centres undefined)

Compound: O=C(CSc1ccc(-c2ccccn2)nn1)Nc1nccs1
- EC50 (cells [12]): > 350 µM (not active)
- EC50 (cells [13]): > 350 µM (not active)

- IC50 [5]: > 66 µM (inactive)
- IC50 [6]: > 66 µM (inactive)
Compound: CCOC(=O)c1c(-c2ccc(C)o2)csc1NC(=S)NC(=O)c1ccc(F)cc1

Compound: S=C(N/N=C/c1cccc2ccccc12)Nc1cccc(Cl)c1
- EC50 (cells [12]): > 350 µM (not active)
- EC50 (cells [13]): > 350 µM (not active)

- IC50 [7]: 110 µM (active)
Compound: c1ccc(CNC23CC4CC(CC(C4)C2)C3)nc1

- IC50 [7]: 91 µM (active)
Compound: O=C1ON=C(c2ccccc2)/C1=C/c1ccco1

- IC50 [7]: 54.9 µM (active)
Compound: CCOc1cc(/C=N/NC(=O)C(OC)c2ccccc2)ccc1O (centres undefined)

Compound: COc1ccccc1NC(=O)C1CCN(C(=O)c2ccc(C(C)(C)C)cc2)CC1
- EC50 (cells [12]): > 350 µM (not active)
- EC50 (cells [13]): > 350 µM (not active)

- IC50 [9]: > 47.1 µM (inactive)
- EC50 [10]: > 53 µM (inactive)
Compound: COc1ccc(CNC(=O)[C@H](C)NC(=O)C2CCN(S(=O)(=O)c3ccc(F)cc3)CC2)cc1

- IC50 [7]: 93 µM (active)
Compound: Cc1ccc(C)c(S(=O)(=O)N2CCN(CC(=O)N3CCc4ccccc4C3)CC2)c1

- AC50 (Paired box protein Pax-8): 26.5 µM (active)
Compound: C[C@H](CO)N1C[C@H](C)[C@H](CN(C)Cc2ccc3c(c2)OCO3)Oc2ccc(NC(=O)Nc3cccc4ccccc34)cc2C1=O

- IC50 [9]: > 47.1 µM (inactive)
- EC50 [10]: > 53 µM (inactive)
Compound: CSc1ccc(S(=O)(=O)NCC(=O)OCC(=O)N(Cc2ccccc2)C(C)C)cc1[N+](=O)[O-]

- IC50 [9]: > 47.1 µM (inactive)
- EC50 [10]: > 53 µM (inactive)
Compound: Cc1occc1C(=O)NC(C)C12CC3CC(CC(C3)C1)C2 (centres undefined)

- IC50 [9]: > 47.1 µM (inactive)
- EC50 [10]: > 53 µM (inactive)
Compound: COc1ccccc1S(=O)(=O)Cc1ccc(C(=O)NCc2ccccc2)o1

Compound: CCCCn1c(N)c(N(CC)C(=O)c2cc(OC)cc(OC)c2)c(=O)[nH]c1=O
- EC50 (cells [12]): > 350 µM (not active)
- EC50 (cells [13]): > 350 µM (not active)

- IC50 [8]: 30.1 µM (not active)
Compound: COc1ccc(NC(S)=NCCc2c(C)[nH]c3ccc(OC)cc23)cc1

- IC50 [7]: 99.8 µM (active)
Compound: N#CC1=C(S)N(c2ccccc2)C(c2ccc(-c3ccccc3Cl)o2)NC1=O (centres undefined)

- IC50 [8]: > 50 µM (not active)
Compound: COc1ccnc(Oc2ccc3ccccc3c2)c1C#N
